{"source": "patent US20050058600A1", "about": "“3,3'-Diindolylmethane antiandrogenic compositions” (priority 2003, published 2005)", "key": {"LNCaP cells [1]": {"test_system": "LNCaP cells", "test": "LNCaP cell proliferation (cell counting)", "format": "cell-based", "conditions": "Homo sapiens, 96 h treatment, read-out: maximal inhibition of LNCaP cell proliferation", "protocol": "DIM was prepared from I3C as described (26-28) and recrystallized in toluene. The human prostate adenocarcinoma cell lines LNCaP-FGC and PC-3 were obtained from the American Type Culture Collection (Rockville, Md.). They were grown as adherent monolayers in 10% FBS-DMEM, supplemented with 4.0 g/L glucose and 3.7 g/L sodium bicarbonate in a humidified incubator at 37° C. and 5% CO2 and passaged at approximately 80% confluency. Cultures used in subsequent experiments were at less than 40 passages. Cells grown in stripped conditions were in 5% DCC-FBS-DMEM base supplemented with 4.0 g/L glucose, 3.7 g/L sodium bicarbonate, and 0.293 g/L L-Glutamine.\nCell Growth. Before the beginning of the treatments, cells were depleted of androgen for 4-7 d in medium composed of DMEM base without phenol-red and with 4.0 g/L glucose and 3.7 g/L sodium bicarbonate. During the depletion period, medium was changed every 48 h. Treatments were administered by addition of 1 μL of 1,000× solution in DMSO per mL of medium. Once the treatment period started, medium was changed daily to counter possible loss of readily metabolized compounds.\nCell Counting. Cells were harvested by trypsinization and resuspended in culture medium. Aliquots were diluted 50-fold in Isoton II (Coulter Corp., Miami, Fla.) and 200 μL duplicates were counted in a model Z1 Coulter particle counter and averaged."}, "LNCaP cells [2]": {"test_system": "LNCaP cells", "test": "[3H]Thymidine incorporation (DNA synthesis) in LNCaP cells", "format": "cell-based, human", "conditions": "uninduced and androgen-induced (1 nM DHT) growth conditions"}, "AR [3]": {"molecular_target": "T1, AR (Homo sapiens, UniProt P10275, T878A)", "T1 construct": "95 μL of either LNCaP cell extracts or recombinant AR protein; endogenous in cells; host or cells: LNCaP", "T1 sequence (P10275 1-920 T878A)": "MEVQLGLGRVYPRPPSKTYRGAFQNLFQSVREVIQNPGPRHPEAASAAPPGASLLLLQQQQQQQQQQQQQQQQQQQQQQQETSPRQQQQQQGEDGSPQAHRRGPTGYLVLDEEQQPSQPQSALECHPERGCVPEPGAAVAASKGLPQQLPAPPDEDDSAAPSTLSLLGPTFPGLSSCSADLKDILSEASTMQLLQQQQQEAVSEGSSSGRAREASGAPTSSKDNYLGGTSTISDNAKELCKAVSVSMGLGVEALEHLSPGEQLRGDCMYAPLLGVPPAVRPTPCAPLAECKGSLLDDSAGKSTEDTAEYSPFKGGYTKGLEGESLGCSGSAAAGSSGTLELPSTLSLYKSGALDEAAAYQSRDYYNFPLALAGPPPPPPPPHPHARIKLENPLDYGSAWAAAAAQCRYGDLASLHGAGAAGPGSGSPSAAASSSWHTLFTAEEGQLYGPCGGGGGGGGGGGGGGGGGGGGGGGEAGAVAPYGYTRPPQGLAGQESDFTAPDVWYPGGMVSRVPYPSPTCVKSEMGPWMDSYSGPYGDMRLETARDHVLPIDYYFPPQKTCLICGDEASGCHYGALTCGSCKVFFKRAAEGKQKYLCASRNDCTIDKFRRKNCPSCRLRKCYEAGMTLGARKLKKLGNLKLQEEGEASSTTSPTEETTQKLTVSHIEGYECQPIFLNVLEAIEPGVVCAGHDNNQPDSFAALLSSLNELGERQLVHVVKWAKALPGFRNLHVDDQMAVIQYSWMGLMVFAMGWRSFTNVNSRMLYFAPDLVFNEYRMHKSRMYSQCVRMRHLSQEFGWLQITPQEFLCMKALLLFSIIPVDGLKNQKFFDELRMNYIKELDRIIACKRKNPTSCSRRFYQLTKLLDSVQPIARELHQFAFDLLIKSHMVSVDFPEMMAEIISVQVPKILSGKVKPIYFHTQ", "test": "MMTV-Luc / pPSA-Luc reporter assay in LNCaP cells", "format": "cell-based", "protocol": "Plasmid Reporters and Expression Vectors. The ARE responsive luciferase reporter plasmid, pPSA-630 luciferase (pPSA-Luc) was prepared as previously described (29). pPSA-Luc contains the PSA promoter region (−630 to 12) with three AREs, all of which are critical to the activity of the pPSA-Luc promoter. The MMTV-Luc contains one consensus ARE and the expression vector, pCMV-hAR constitutively expresses a fully functional human androgen receptor. The pCMV-GFP-rAR was prepared as previously described (30).\nTransient Transfections with Reporters and Luciferase Assay. LNCaP and PC-3 cells were transfected, with some modifications, as previously described (20). For AR transactivation, cells were transfected with 0.1 μg of MMTV-Luc or pPSA-Luc per plate. Co-transfection experiments with pCMV-hAR or pCMV-GFP-rAR, 0.1 μg per plate was also used. For experiments involving GFP fluorescence imaging, treatments were not added until 30 h after transfection."}, "[4]": {"test_system": "wild-type recombinant human AR", "test": "Competitive [3H]DHT binding assay, recombinant AR protein", "conditions": "micromolar concentration range"}, "AR [5]": {"molecular_target": "T1, AR", "test": "AR cytoplasmic/nuclear distribution by subcellular fractionation and Western blot in LNCaP cells", "format": "cell-based", "protocol": "Subcellular Fractionation. Three near confluent (80-90%) cultures of LNCaP cells in 100 mm Petri dishes were used for each treatment. Treatments were added as 1 μL of 1,000× solution in DMSO per ml of medium for the indicated time. After incubation with treatments at 37° C., cytosolic and nuclear proteins were prepared as described (32,33) with modifications. Briefly, cells were lysed in hypotonic buffer (10 mM Hepes, pH 7.5) and harvested in MDH buffer (3 mM MgCl2, 1 mM DTT, 25 mM Hepes, pH 7.5). After homogenization, supernatant was saved for cytosolic proteins and nuclear proteins were extracted from the pellets using MDHK buffer (3 mM MgCl2, 1 mM DTT, 0.1 M KCl, 25 mM Hepes, pH 7.5) followed by HDK buffer (25 mM Hepes, pH 7.5, 1 mM DTT, 0.4 M KCl). Cytosolic and nuclear extracts were subsequently analyzed by Western blot analysis.\nWestern Blot Analysis. Following the indicated treatment, Western immunoblot analyses of androgen receptor from LNCaP cells were performed as described previously (20). […] The amount of protein was quantified by Gel Densitometer (Bio-Rad) and normalized with P-actin when used as an internal control."}, "[6]": {"test_system": "dimethylbenzanthracene (DMBA)-induced mammary tumors", "conditions": "rats; cited from earlier work"}, "[7]": {"test_system": "benzo(a)pyrene (BP)-induced tumors of the forestomach", "conditions": "mice; cited from earlier work"}, "breast cancer cells": {"test_system": "breast cancer cells", "conditions": "in culture; cited from earlier work"}}, "data": [{"smiles": "c1ccc2c(Cc3c[nH]c4ccccc34)c[nH]c2c1", "note": "[DIM, 3,3′-diindolylmethane]", "values": [{"measurement": "inhibition at 50 µM", "setting": "LNCaP cells [1]", "value": 70, "unit": "%"}, {"measurement": "inhibition of DNA synthesis", "setting": "LNCaP cells [2]", "value": "up to 90%"}, {"measurement": "inhibition at 1 µM", "setting": "AR [3]; read-out: inhibition of DHT induction of androgen-responsive genes, 1 μM, both MMTV-Luc and pPSA-Luc", "value": "> 50", "unit": "%"}, {"measurement": "inhibition at 10 µM", "setting": "AR [3]; read-out: inhibition of DHT induction of androgen-responsive genes, 10 μM, both MMTV-Luc and pPSA-Luc", "value": "> 90", "unit": "%"}, {"measurement": "transactivation of reporter genes by compound alone", "setting": "AR [3]; without DHT", "value": "failed to induce transactivation"}, {"measurement": "competition with labeled DHT for binding to the AR", "setting": "[4]", "value": "competes with labeled DHT for binding to the AR"}, {"measurement": "effect on nuclear translocation of the AR, compound alone", "setting": "AR [5]; absence of DHT", "value": "had no effect"}, {"measurement": "block of DHT-induced AR translocation", "setting": "AR [5]; co-treatment with 1 nM DHT", "value": "up to 75%"}, {"measurement": "incidence of DMBA-induced mammary tumors", "setting": "[6]", "value": "reduced the incidence"}, {"measurement": "incidence of BP-induced tumors of the forestomach", "setting": "[7]", "value": "reduced the incidence"}, {"measurement": "programmed cell death in human breast tumor cells", "setting": "breast cancer cells", "value": "induced programmed cell death"}, {"measurement": "proliferation of breast cancer cells", "setting": "breast cancer cells", "value": "inhibit proliferation"}]}]}
